This note sets out measurements from BindingDB's records for doi:10.1038/nchembio.1603 (Glaxosmithkline, 2014).

The assay deals with Fatty acid synthase (Homo sapiens, UniProt P49327). Description: FAS Assay No1. As for the experimental part: Inhibition of FAS by benzimidazole was measured by an endpoint assay for NADPH consumption.
Chain of Fatty acid synthase (P49327 whole entry): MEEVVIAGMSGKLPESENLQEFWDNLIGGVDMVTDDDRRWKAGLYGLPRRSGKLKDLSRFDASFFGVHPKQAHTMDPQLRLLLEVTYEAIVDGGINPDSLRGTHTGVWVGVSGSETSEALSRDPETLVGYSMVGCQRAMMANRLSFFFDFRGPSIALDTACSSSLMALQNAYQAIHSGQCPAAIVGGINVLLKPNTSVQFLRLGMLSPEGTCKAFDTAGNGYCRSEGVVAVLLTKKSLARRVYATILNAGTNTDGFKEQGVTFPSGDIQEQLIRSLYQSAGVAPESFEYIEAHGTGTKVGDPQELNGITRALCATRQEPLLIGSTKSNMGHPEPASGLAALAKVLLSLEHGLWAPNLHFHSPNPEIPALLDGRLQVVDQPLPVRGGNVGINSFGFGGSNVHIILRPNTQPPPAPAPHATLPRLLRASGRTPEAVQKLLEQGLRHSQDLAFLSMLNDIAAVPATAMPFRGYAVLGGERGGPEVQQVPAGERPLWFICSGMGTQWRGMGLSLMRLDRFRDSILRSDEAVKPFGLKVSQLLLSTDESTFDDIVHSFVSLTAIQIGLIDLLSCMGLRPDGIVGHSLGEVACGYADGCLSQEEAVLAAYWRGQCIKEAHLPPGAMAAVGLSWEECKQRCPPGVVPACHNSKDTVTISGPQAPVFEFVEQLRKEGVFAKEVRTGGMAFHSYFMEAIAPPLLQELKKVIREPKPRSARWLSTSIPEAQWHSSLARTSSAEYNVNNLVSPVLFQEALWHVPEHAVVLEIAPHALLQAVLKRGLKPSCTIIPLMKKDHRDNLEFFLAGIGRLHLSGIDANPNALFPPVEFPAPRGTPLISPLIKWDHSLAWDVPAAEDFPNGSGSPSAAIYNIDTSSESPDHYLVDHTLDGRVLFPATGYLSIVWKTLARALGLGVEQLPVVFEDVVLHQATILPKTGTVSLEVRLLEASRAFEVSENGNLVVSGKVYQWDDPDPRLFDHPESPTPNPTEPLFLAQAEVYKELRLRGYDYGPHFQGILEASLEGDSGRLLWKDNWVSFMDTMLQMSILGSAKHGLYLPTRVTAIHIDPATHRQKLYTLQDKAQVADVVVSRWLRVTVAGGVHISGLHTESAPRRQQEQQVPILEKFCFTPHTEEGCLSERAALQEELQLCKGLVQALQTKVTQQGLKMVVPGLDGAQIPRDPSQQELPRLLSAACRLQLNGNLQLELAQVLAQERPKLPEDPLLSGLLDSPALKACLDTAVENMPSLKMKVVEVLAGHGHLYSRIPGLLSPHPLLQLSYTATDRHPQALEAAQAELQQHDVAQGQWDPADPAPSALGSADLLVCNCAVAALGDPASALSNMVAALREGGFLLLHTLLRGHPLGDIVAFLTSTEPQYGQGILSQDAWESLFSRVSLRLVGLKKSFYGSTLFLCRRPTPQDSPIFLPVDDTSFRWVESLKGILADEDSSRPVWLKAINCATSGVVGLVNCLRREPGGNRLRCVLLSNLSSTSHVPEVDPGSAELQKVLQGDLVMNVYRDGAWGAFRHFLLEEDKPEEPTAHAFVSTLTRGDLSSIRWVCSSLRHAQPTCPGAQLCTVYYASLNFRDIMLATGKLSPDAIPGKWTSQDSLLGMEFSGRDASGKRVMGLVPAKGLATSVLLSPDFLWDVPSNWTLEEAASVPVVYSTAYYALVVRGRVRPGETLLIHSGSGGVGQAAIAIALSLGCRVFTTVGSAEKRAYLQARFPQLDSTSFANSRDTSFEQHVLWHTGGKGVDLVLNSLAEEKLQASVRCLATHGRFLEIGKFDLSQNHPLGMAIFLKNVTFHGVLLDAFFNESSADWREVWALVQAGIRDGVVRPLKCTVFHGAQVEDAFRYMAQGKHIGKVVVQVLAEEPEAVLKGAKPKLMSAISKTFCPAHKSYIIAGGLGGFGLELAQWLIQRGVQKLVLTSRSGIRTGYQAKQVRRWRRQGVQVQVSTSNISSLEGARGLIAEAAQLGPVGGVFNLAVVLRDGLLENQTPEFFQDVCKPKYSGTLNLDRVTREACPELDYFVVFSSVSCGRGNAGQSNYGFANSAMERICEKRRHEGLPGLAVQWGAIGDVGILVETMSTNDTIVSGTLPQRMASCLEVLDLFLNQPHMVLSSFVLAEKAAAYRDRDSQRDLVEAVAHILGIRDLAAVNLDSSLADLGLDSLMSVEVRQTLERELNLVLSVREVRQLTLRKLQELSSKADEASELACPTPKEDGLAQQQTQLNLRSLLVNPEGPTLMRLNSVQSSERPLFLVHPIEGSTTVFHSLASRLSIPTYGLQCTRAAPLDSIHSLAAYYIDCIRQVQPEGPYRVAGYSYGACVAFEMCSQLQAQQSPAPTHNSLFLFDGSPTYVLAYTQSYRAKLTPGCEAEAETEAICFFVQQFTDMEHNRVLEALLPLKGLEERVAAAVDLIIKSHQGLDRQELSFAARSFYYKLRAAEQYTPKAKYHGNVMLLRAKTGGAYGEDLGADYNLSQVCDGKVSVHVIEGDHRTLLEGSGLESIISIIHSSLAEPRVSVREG

`CNC(=O)c1ccc2nc(-c3ccc(-c4ccccc4)cc3)n(CC3CCN(C(=O)C4CC4)C3)c2c1` (stereo unspecified) [2-([1,1'-Biphenyl]-4-yl)-1-((1-(cyclopropanecarbonyl)pyrrolidin-3-yl)methyl)-N-methyl-1H-benzo[d]imidazole-6-carboxamide]: the IC50 (as a rule, the concentration that inhibits the measured activity by half) was 1000 nM.
